Results: paper PMC8373216, “Development and Preclinical Evaluation of New Inhaled Lipoglycopeptides for the Treatment of Persistent Pulmonary Methicillin-Resistant Staphylococcus aureus Infections” (Antimicrobial Agents and Chemotherapy, 2021)
Converted amounts (≈) assume the structure as drawn. Like-named read-outs stand apart in the source and are kept apart here.

Experiments:
[1] = tested on: MRSA ATCC BAA 1556 (USA300) biofilm; assay: Static MRSA biofilm killing, plastic microtiter plate, MEM
[2] = tested on: Peptostreptococcus micros; assay: Expanded panel broth microdilution MIC; assay type: cell-based
[3] = tested on: Clostridium. perfringens; assay: microbe, parasite or virus in culture; assay type: cell-based
[4] = tested on: Enterococcus faecium; assay: Expanded panel broth microdilution MIC/MBC; assay type: cell-based; conditions: for MIC: Enterococcus faecium
[5] = tested on: Streptococcus dysgalactiae; assay: Expanded panel broth microdilution MIC/MBC; assay type: cell-based; conditions: for MIC: Streptococcus dysgalactiae
[6] = tested on: MRSA ATCC BAA 1556 (USA300); assay: In-house broth microdilution MIC screening; assay type: cell-based, Staphylococcus aureus; conditions: Staphylococcus aureus, read-out: MIC Value, MRSA ATCC BAA 1556
[7] = tested on: Streptococcus agalactiae; assay: Expanded panel broth microdilution MIC/MBC; assay type: cell-based
[8] = tested on: Cutibacterium acnes; assay: Expanded panel broth microdilution MIC; assay type: cell-based
[9] = Single-dose nebulized nose-only inhalation PK in healthy rats; assay type: in vivo, rat
Description: Rats were acclimated in the study facility for approximately 1 week prior to study start. Ten or eleven rats per cohort were loaded into the chamber at the time of dosing. […] An additional airflow set to 6 liters/min was admixed with the nebulizer output to further direct the test articles to the animals. […] The remaining port on the chamber was fit with an aerosol sampling filter for dose determination over a 5 min sampling period. The average dose delivered to the nose of each animal was calculated using an algorithm that was previously described ([49]). […] Animals were euthanized for collection of whole lungs and plasma at time points ranging from immediate postdose (IPD; approximately 30 min after dosing for nebulization) to 168 h postdose (7 days). Drugs were extracted from tissues using customized protein precipitation methods with an appropriate internal standard for each compound and transferred for analysis by LC-MS/MS (Sciex API4500 or API6500+ mass spectrometer [Sciex, Framingham, MA]). GraphPad Prism (La Jolla, CA) was used for statistical analyses and data plotting. […] The data were applied to a noncompartmental analysis after extravascular dosing input and fit to a linear up/log down model. Statistical analysis of in vitro intracellular and biofilm activity was based on a two-way ANOVA with a Bonferroni post test. In vivo statistical analysis was based on the Kolmogorov-Smirnov test.

[10] = tested on: Staphylococcus lugdunensis; assay: Expanded panel broth microdilution MIC; assay type: cell-based
[11] = tested on: MSSA ATCC 29213; assay: In-house broth microdilution MIC screening; assay type: cell-based; conditions: Staphylococcus aureus, read-out: MIC Value, MSSA ATCC 29213
[12] = tested on: Streptococcus anginosus; assay: Expanded panel broth microdilution MIC/MBC; assay type: cell-based; conditions: for MIC: Streptococcus anginosus
[13] = single nebulized nose-only inhaled dose, healthy rats

With `CCCCCCCCCCNCCN[C@@]1(C)C[C@H](O[C@H]2[C@H](Oc3c4cc5cc3Oc3ccc(cc3Cl)[C@@H](O)[C@@H](NC(=O)[C@@H](CC(C)C)NC)C(=O)N[C@@H](CC(N)=O)C(=O)N[C@H]5C(=O)N[C@H]3C(=O)N[C@H](C(=O)N[C@H](C(=O)O)c5cc(O)c(CNCP(=O)(O)O)c(O)c5-c5cc3ccc5O)[C@H](O)c3ccc(c(Cl)c3)O4)O[C@H](CO)[C@@H](O)[C@@H]2O)O[C@@H](C)[C@H]1O` [Telavancin, telavancin] the “Reduction in MRSA biofilm titer versus control” value ([1]; doses 1 to 10 μg/ml) was “approximately 2 log10 CFU/ml”, the “Concentrations with statistically significant reduction versus control biofilm” value ([1]; two-way ANOVA, Bonferroni) was no less than 10 µg/mL and the MIC ([2]; P. micros, 1 isolate) was 0.12 µg/mL (≈ 0.0684 µM). The MIC ([2]; Parvimonas micra) was 0.12 µg/mL (≈ 0.0684 µM), the MIC [3] was 0.015 µg/mL (≈ 0.00854 µM) and the MIC ([3]; ATCC13124, read-out: MIC) was 0.015 µg/mL (≈ 0.00854 µM). For the same compound, the “MIC:MBC” value ([4]; E. faecium VanA VRE) was greater than 4, the “MIC:MBC” value ([4]; E. faecium VanB VRE) was greater than 8 and the MIC ([4]; E. faecium MMX 4204, VSE) was 0.06 µg/mL (≈ 0.0342 µM). It also gave an MIC ([4]; E. faecium VSE, 1 isolate) of 0.06 µg/mL (≈ 0.0342 µM), an MIC ([4]; VRE, E. faecium MMX 173, VanB VRE) of 0.06 µg/mL (≈ 0.0342 µM) and an MIC ([4]; VRE, E. faecium MMX 851, VanA VRE) of 2 µg/mL (≈ 1.14 µM). For the same compound, the MIC ([4]; VRE, E. faecium VanA VRE, 1 isolate) was 2 µg/mL (≈ 1.14 µM), the MIC ([4]; VRE, E. faecium VanB VRE, 1 isolate) was 0.06 µg/mL (≈ 0.0342 µM) and the “MIC:MBC” value ([5]; S. dysgalactiae, MBC on one organism) was 4. For the same compound, the MIC ([5]; S. dysgalactiae MMX 5121) was 0.12 µg/mL (≈ 0.0684 µM), the MIC ([5]; S. dysgalactiae MMX 5123) was 0.25 µg/mL (≈ 0.142 µM) and the MIC ([5]; S. dysgalactiae MMX 5124) was 0.03 µg/mL (≈ 0.0171 µM). The MIC ([5]; read-out: MIC (median), S. dysgalactiae, 3 isolates) was 0.12 µg/mL (≈ 0.0684 µM), the MIC [6] was 0.063 µg/mL (≈ 0.0359 µM) and the MIC ([7]; S. agalactiae MMX 4115, ermR) was 0.06 µg/mL (≈ 0.0342 µM). The MIC ([7]; S. agalactiae ermR, 1 isolate) was 0.06 µg/mL (≈ 0.0342 µM), the “MIC:MBC” value ([7]; S. agalactiae, MBC on one organism) was greater than 8 and the MIC ([7]; Streptococcus agalactiae) was 0.06 µg/mL (≈ 0.0342 µM). It also gave an MIC ([7]; Streptococcus agalactiae, ATCC13813) of 0.06 µg/mL (≈ 0.0342 µM), an MIC ([7]; Streptococcus agalactiae, read-out: MIC (median)) of 0.06 µg/mL (≈ 0.0342 µM) and an MIC ([8]; ATCC6919) of 0.03 µg/mL (≈ 0.0171 µM). The MIC ([8]; ATCC11827) was 0.015 µg/mL (≈ 0.00854 µM), the MIC ([8]; read-out: MIC (median)) was 0.02 µg/mL (≈ 0.0114 µM) and the half-life ([9]; male, Sprague Dawley, rat, in vivo, inhaled or intranasal, single nebulized nose-only inhaled dose, healthy rats, noncompartmental analysis, read-out: Lung t1/2 (converted)) was 21.1 days. For the same compound, the “Drug lung level at 120 h” value ([9]; relative to IPD level, rat lung) was 81%, the “Lung AUC0-∞” value [9, 13] was 3877 µg·h/g and the “Lung Cmax” value [9, 13] was 12 µg/g. For the same compound, the “Plasma Cmax” value [9, 13] was “BLQ”, the MIC ([10]; S. lugdunensis, 1 isolate) was 0.06 µg/mL (≈ 0.0342 µM) and the MIC ([10]; Staphylococcus lugdunensis) was 0.06 µg/mL (≈ 0.0342 µM). For the same compound, the MIC [11] was 0.063 µg/mL (≈ 0.0359 µM), the “MIC:MBC” value ([12]; S. anginosus AGS) was greater than 8 and the MIC [12] was 0.06 µg/mL (≈ 0.0342 µM). The MIC ([12]; ATCC33397) was 0.06 µg/mL (≈ 0.0342 µM).
